Patent publication US12479827B2, “Heteroaromatic carboxamide derivatives as plasma kallikrein inhibitors” (Boehringer Ingelheim International GmbH, priority 2020, dated 2025)

How the values were obtained:
Human PKK = target: T1, Human PKK (Homo sapiens, UniProt P03952); assay: Inhibition of PKK using an endpoint assay (human PKK); format: biochemical; settings: fluorogenic substrate H-Pro-Phe-Arg-AMC, 1 h room temperature, method names human or rat PKK, table does not say which
T1 construct: purchased Enzyme Research Laboratories
T1 sequence (P03952 20-390 limits assumed): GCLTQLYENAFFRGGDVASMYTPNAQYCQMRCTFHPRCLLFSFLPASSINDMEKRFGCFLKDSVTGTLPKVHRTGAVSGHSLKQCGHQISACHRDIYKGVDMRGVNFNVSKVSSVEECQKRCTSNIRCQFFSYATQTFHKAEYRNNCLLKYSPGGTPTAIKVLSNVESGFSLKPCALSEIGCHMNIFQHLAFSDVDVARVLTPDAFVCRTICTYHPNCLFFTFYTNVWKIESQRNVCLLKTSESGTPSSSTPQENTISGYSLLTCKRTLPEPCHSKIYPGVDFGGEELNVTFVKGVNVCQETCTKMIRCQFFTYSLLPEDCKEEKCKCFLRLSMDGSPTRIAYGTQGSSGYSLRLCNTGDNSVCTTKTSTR
T1 sequence (P03952 391-638 limits assumed): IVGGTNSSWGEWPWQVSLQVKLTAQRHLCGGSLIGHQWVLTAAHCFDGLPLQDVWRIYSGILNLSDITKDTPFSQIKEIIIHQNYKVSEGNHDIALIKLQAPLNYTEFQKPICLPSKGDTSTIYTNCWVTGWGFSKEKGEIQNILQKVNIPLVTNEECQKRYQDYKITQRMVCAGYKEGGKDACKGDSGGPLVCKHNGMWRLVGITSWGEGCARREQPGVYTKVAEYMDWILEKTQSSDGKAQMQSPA
How it was run: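 Human PKK inhibition measured in 100 mM Tris, 150 mM NaCl, pH 7.8, 0.1% BSA, 0.05% Tween20, 1% DMSO. Endpoint format: reaction stopped with PPACK II at 1 μM final, fluorescence read at 355 nm excitation/460 nm emission.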

[1] = target: T2, PKK in kaolin activated human platelet poor plasma (Homo sapiens, UniProt P03952); assay: Inhibition of PKK in kaolin activated human PPP; format: biochemical; settings: 25-750 μg/mL kaolin, global fit, text b200 calls the values IC90;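 further: readout is the rate of fluorogenic substrate cleavage in rfu per min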
T2 construct: Platelet poor plasma (PPP) obtained from human wholeblood; from tissue
T2 sequence (P03952 391-638 limits assumed): as above
T2 sequence (P03952 20-390 limits assumed): as the sequence (P03952 20-390 limits assumed) above
Procedure: Platelet poor plasma (PPP) obtained from human wholeblood, anticoagulated with Na-Citrate, is incubated with various concentrations of the test compound together with either 25, 75, 250, or 750 μg/mL kaolin in assay buffer for 20 min at 37° C. such that for each kaolin dose used a concentration response is obtained for the test compound.

| Structure (SMILES) | IC50 (Human PKK) [nM] | IC50 [1] [nM] |
| --- | --- | --- |
| Cc1cc(N2CC3C(C2)C3(F)F)nc(C)c1Cn1cnc(C(=O)N[C@@H]2CCc3c2ncn3C)c1 (stereo partly drawn) [Example 111, 1-[(6-{6,6-Difluoro-3-azabicyclo[3.1.0]hexan-3-yl}-2,4-dimethylpyridin-3-yl)methyl]-N-[(4R)-1-methyl-1H,4H,5H,6H-cyclopenta[d]imidazol-4-yl]-1H-imidazole-4-carboxamide] | 8.6 | 4150 |
| Cc1cc(N2CC3C(C2)C3(F)F)nc(C)c1Cn1cc(C(=O)N[C@@H]2CCc3c2ncn3C)cn1 (stereo partly drawn) [Example 112, 1-[(6-{6,6-Difluoro-3-azabicyclo[3.1.0]hexan-3-yl}-2,4-dimethylpyridin-3-yl)methyl]-N-[(4R)-1-methyl-1H,4H,5H,6H-cyclopenta[d]imidazol-4-yl]-1H-pyrazole-4-carboxamide] | 12.6 | 2780 |
| Cn1cnc2c1CC[C@H]2NC(=O)c1cnn(Cc2ccc(N3CC4CC4C3)nc2C#N)c1 (stereo partly drawn) [Example 132, 1-[(6-{3-Azabicyclo[3.1.0]hexan-3-yl}-2-cyanopyridin-3-yl)methyl]-N-[(4R)-1-methyl-1H,4H,5H,6H-cyclopenta[d]imidazol-4-yl]-1H-pyrazole-4-carboxamide] | 1.9 | 425 |
| Cn1cnc2c1CC[C@H]2NC(=O)c1c[nH]c(Cc2ccc(N3CC4C(C3)C4(F)F)nc2)c1 (stereo partly drawn) [Example 139, 5-[(6-{6,6-Difluoro-3-azabicyclo[3.1.0]hexan-3-yl}pyridin-3-yl)methyl]-N-[(4R)-1-methyl-1H,4H,5H,6H-cyclopenta[d]imidazol-4-yl]-1H-pyrrole-3-carboxamide] | 9.6 | 774 |
| Cn1cnc2c1CC[C@H]2NC(=O)c1ccn(Cc2ccc(N3CC4C(C3)C4(F)F)nc2)c1 (stereo partly drawn) [Example 140, 1-[(6-{6,6-Difluoro-3-azabicyclo[3.1.0]hexan-3-yl}pyridin-3-yl)methyl]-N-[(4R)-1-methyl-1H,4H,5H,6H-cyclopenta[d]imidazol-4-yl]-1H-pyrrole-3-carboxamide] | 5.8 | 760 |
| Cc1nc(N2CC3C(C2)C3(F)F)ccc1Cn1ccc(C(=O)N[C@@H]2CCc3c2ncn3C)c1 (stereo partly drawn) [Example 141, 1-[(6-{6,6-Difluoro-3-azabicyclo[3.1.0]hexan-3-yl}-2-methylpyridin-3-yl)methyl]-N-[(4R)-1-methyl-1H,4H,5H,6H-cyclopenta[d]imidazol-4-yl]-1H-pyrrole-3-carboxamide] | 2 | 621 |
| Cc1nc(N2CC3C(C2)C3(F)F)ccc1Cc1cc(C(=O)N[C@@H]2CCc3c2ncn3C)c[nH]1 (stereo partly drawn) [Example 142, 5-[(6-{6,6-Difluoro-3-azabicyclo[3.1.0]hexan-3-yl}-2-methylpyridin-3-yl)methyl]-N-[(4R)-1-methyl-1H,4H,5H,6H-cyclopenta[d]imidazol-4-yl]-1H-pyrrole-3-carboxamide] | 5.8 | 731 |
| CCc1nc(N2C[C@@H]3[C@H](C)[C@@H]3C2)ccc1Cn1cnc(C(=O)N[C@@H]2CCc3c2ncn3C)c1 [Example 143, 1-({2-Ethyl-6-[(1R,5S,6R)-6-methyl-3-azabicyclo[3.1.0]hexan-3-yl]pyridin-3-yl}methyl)-N-[(4R)-1-methyl-1H,4H,5H,6H-cyclopenta-[d]imidazol-4-yl]-1H-imidazole-4-carboxamide] | 0.6 | 1170 |
| Cn1cnc2c1CC[C@H]2NC(=O)c1cc(Cc2ccc(N3CC4CC4C3)nc2C(F)F)no1 (stereo partly drawn) [Example 144, 3-[(6-{3-Azabicyclo[3.1.0]hexan-3-yl}-2-(difluoromethyl)pyridin-3-yl)methyl]-N-[(4R)-1-methyl-1H,4H,5H,6H-cyclopenta[d]imidazol-4-yl]-1,2-oxazole-5-carboxamide] | 0.8 | 248 |
| Cn1cnc2c1CC[C@H]2NC(=O)c1cc(Cc2ccc(N3CC4C(C3)C4(F)F)nc2C(F)F)no1 (stereo partly drawn) [Example 145, 3-[(6-{6,6-Difluoro-3-azabicyclo[3.1.0]hexan-3-yl}-2-(difluoromethyl)pyridin-3-yl)methyl]-N-[(4R)-1-methyl-1H,4H,5H,6H-cyclopenta-[d]imidazol-4-yl]-1,2-oxazole-5-carboxamide] | 0.7 | 245 |
| CCc1nc(N2CC3CC3C2)ccc1Cc1cc(C(=O)N[C@@H]2CCc3c2ncn3C)on1 (stereo partly drawn) [Example 146, 3-[(6-{3-Azabicyclo[3.1.0]hexan-3-yl}-2-ethylpyridin-3-yl)methyl]-N-[(4R)-1-methyl-1H,4H,5H,6H-cyclopenta[d]imidazol-4-yl]-1,2-oxazole-5-carboxamide] | 1.1 | 274 |
| Cn1cnc2c1CC[C@H]2NC(=O)c1cc(Cc2ccc(N3CC4C(C3)C4(F)F)nc2CO)no1 (stereo partly drawn) [Example 147, 3-[(6-{6,6-Difluoro-3-azabicyclo[3.1.0]hexan-3-yl}-2-(hydroxymethyl)pyridin-3-yl)methyl]-N-[(4R)-1-methyl-1H,4H,5H,6H-cyclopenta-[d]imidazol-4-yl]-1,2-oxazole-5-carboxamide] | 1.4 | 149 |
| Cn1cnc2c1CC[C@H]2NC(=O)c1cc(Cc2ccc(N3CC4CC4C3)nc2Cl)no1 (stereo partly drawn) [Example 148, 3-[(6-{3-Azabicyclo[3.1.0]hexan-3-yl}-2-chloropyridin-3-yl)methyl]-N-[(4R)-1-methyl-1H,4H,5H,6H-cyclopenta[d]imidazol-4-yl]-1,2-oxazole-5-carboxamide] | 1.4 | 985 |
| Cn1cnc2c1CC[C@H]2NC(=O)c1cc(Cc2ccc(N3CC4CC4C3)nc2CO)no1 (stereo partly drawn) [Example 149, 3-[(6-{3-Azabicyclo[3.1.0]hexan-3-yl}-2-(hydroxymethyl)pyridin-3-yl)methyl]-N-[(4R)-1-methyl-1H,4H,5H,6H-cyclopenta[d]imidazol-4-yl]-1,2-oxazole-5-carboxamide] | 1.6 | 511 |
| Cn1cnc2c1CC[C@H]2NC(=O)c1cc(Cc2ccc(N3CC4C(C3)C4(F)F)nc2Cl)no1 (stereo partly drawn) [Example 150, 3-[(2-Chloro-6-{6,6-difluoro-3-azabicyclo[3.1.0]hexan-3-yl}pyridin-3-yl)methyl]-N-[(4R)-1-methyl-1H,4H,5H,6H-cyclopenta-[d]imidazol-4-yl]-1,2-oxazole-5-carboxamide] | 1 | 373 |
| Cn1cnc2c1CC[C@H]2NC(=O)c1cc(Cc2ccc(N3CC4CC4C3)nc2)no1 (stereo partly drawn) [Example 151, 3-[(6-{3-Azabicyclo[3.1.0]hexan-3-yl}pyridin-3-yl)methyl]-N-[(4R)-1-methyl-1H,4H,5H,6H-cyclopenta[d]imidazol-4-yl]-1,2-oxazole-5-carboxamide] | 3.6 | 1140 |
| Cc1nc(N2CC3C(C2)C3(F)F)ccc1Cc1cc(C(=O)N[C@@H]2CCc3c2ncn3C)on1 (stereo partly drawn) [Example 152, 3-[(6-{6,6-Difluoro-3-azabicyclo[3.1.0]hexan-3-yl}-2-methylpyridin-3-yl)methyl]-N-[(4R)-1-methyl-1H,4H,5H,6H-cyclopenta[d]imidazol-4-yl]-1,2-oxazole-5-carboxamide] | 1.2 | 430 |
| CCc1nc(N2CC3C(C2)C3(F)F)ccc1Cc1cc(C(=O)N[C@@H]2CCc3c2ncn3C)on1 (stereo partly drawn) [Example 153, 3-[(6-{6,6-Difluoro-3-azabicyclo[3.1.0]hexan-3-yl}-2-ethylpyridin-3-yl)methyl]-N-[(4R)-1-methyl-1H,4H,5H,6H-cyclopenta[d]imidazol-4-yl]-1,2-oxazole-5-carboxamide] | 0.5 | 280 |
| Cc1nc(N2CC3CC3C2)ccc1Cc1ncc(C(=O)N[C@@H]2CCc3c2ncn3C)o1 (stereo partly drawn) [Example 154, 2-[(6-{3-Azabicyclo[3.1.0]hexan-3-yl}-2-methylpyridin-3-yl)methyl]-N-[(4R)-1-methyl-1H,4H,5H,6H-cyclopenta[d]imidazol-4-yl]-1,3-oxazole-5-carboxamide] | 9.9 | 4270 |
| Cc1nc(N2CC3C(C2)C3(F)F)ccc1Cc1ncc(C(=O)N[C@@H]2CCc3c2ncn3C)o1 (stereo partly drawn) [Example 155, 2-[(6-{6,6-Difluoro-3-azabicyclo[3.1.0]hexan-3-yl}-2-methylpyridin-3-yl)methyl]-N-[(4R)-1-methyl-1H,4H,5H,6H-cyclopenta[d]imidazol-4-yl]-1,3-oxazole-5-carboxamide] | 15.4 | 4100 |
| CCc1nc(N2CC3CC3C2)ccc1Cc1ncc(C(=O)N[C@@H]2CCc3c2ncn3C)o1 (stereo partly drawn) [Example 158, 2-[(6-{3-Azabicyclo[3.1.0]hexan-3-yl}-2-ethylpyridin-3-yl)methyl]-N-[(4R)-1-methyl-1H,4H,5H,6H-cyclopenta[d]imidazol-4-yl]-1,3-oxazole-5-carboxamide] | 4.6 | 2100 |
| Cn1cnc2c1CC[C@H]2NC(=O)c1c[nH]c(Cc2ccc(N3CC4C(C3)C4(F)F)nc2Cl)c1 (stereo partly drawn) [Example 159, 5-[(2-Chloro-6-{6,6-difluoro-3-azabicyclo-[3.1.0]hexan-3-yl}pyridin-3-yl)methyl]-N-[(4R)-1-methyl-1H,4H,5H,6H-cyclopenta[d]imidazol-4-yl]-1H-pyrrole-3-carboxamide] | 3.5 | 1140 |
| CCc1nc(N2CC3C(C2)C3(F)F)ccc1Cc1cc(C(=O)N[C@@H]2CCc3c2ncn3C)n(C(C)C)n1 (stereo partly drawn) [Example 160, 3-[(6-{6,6-Difluoro-3-azabicyclo[3.1.0]hexan-3-yl}-2-ethylpyridin-3-yl)methyl]-N-[(4R)-1-methyl-1H,4H,5H,6H-cyclopenta[d]imidazol-4-yl]-1-(propan-2-yl)-1H-pyrazole-5-carboxamide] | 2.2 | 967 |
